Measurements: patent US4599414A, “Theophylline derivatives” (Eisai Co., Ltd., priority 1979, dated 1986)
Like-named read-outs stand apart in the source and are kept apart here.

Test system: contractile response to histamine, terminal ileum
Assay: Antihistaminic action: inhibition of contractile response to histamine (10^-6 M) in isolated terminal ileum
Assay type: cell-based, guinea-pig
Details: for inhibition at 0.01 µM / inhibition at 0.1 µM / inhibition at 1 µM: Cavia porcellus
Protocol: The terminal ileum was removed from a starved guinea-pig and set up in an organ bath containing Tyrode solution maintained at 26° C. Contractile tension was recorded isometrically under a tension of 1.5 g with a strain-gauge transducer. After obtaining control response to histamine (10^-6 M), antagonists were added to the bath and allowed to remain in contact with the tissue for 3 minutes. Contractile response to histamine in the presence of the antagonists was recorded and the inhibitory rate was calculated according to the following equation: [formula] The tissue was then washed at 10 min intervals with fresh Tyrode solution. Contractile response to histamine was tested after each wash in order to study the duration of action of the antagonists.

[1] = 0.05 h, read-out: Inhibitory rate before washing
[2] = read-out: Inhibitory rate after 1st washing
[3] = read-out: Inhibitory rate after 2nd washing
[4] = 0.05 h, antagonist 10^-6 M, 3 min contact, before washing, read-out: Inhibitory rate before washing
[5] = 0.05 h, antagonist 10^-7 M, 3 min contact, before washing, read-out: Inhibitory rate before washing
[6] = 0.05 h, antagonist 10^-8 M, 3 min contact, before washing, read-out: Inhibitory rate before washing
[7] = antagonist 10^-6 M, after 1st washing, read-out: Inhibitory rate after 1st washing
[8] = antagonist 10^-6 M, after 2nd washing, read-out: Inhibitory rate after 2nd washing
[9] = antagonist 10^-6 M, after 3rd washing, read-out: Inhibitory rate after 3rd washing
[10] = antagonist 10^-7 M, after 1st washing, read-out: Inhibitory rate after 1st washing
[11] = antagonist 10^-7 M, after 2nd washing, read-out: Inhibitory rate after 2nd washing
[12] = antagonist 10^-7 M, after 3rd washing, read-out: Inhibitory rate after 3rd washing
[13] = antagonist 10^-8 M, after 1st washing, read-out: Inhibitory rate after 1st washing
[14] = antagonist 10^-8 M, after 2nd washing, read-out: Inhibitory rate after 2nd washing
[15] = antagonist 10^-8 M, after 3rd washing, read-out: Inhibitory rate after 3rd washing

SMILES | Inhibitory rate after 4th washing (antagonist 10^-7 M) [%] | Inhibitory rate after 5th washing (antagonist 10^-7 M) [%] | inhibition at 1 µM [4] [%] | inhibition at 0.1 µM [5] [%] | inhibition at 0.01 µM [6] [%] | inhibition at 1 µM [7] [%] | inhibition at 1 µM [8] [%] | inhibition at 1 µM [9] [%] | inhibition at 0.1 µM [10] [%] | inhibition at 0.1 µM [11] [%] | inhibition at 0.1 µM [12] [%] | inhibition at 0.01 µM [13] [%] | inhibition at 0.01 µM [14] [%] | inhibition at 0.01 µM [15] [%] | also measured
CN1CCCN(C(c2ccccc2)c2ccc(Cl)cc2)CC1 (stereo not drawn) [(3), Homochlorcyclizine, reference compound] | 39 | 25 | – | – | – | – | – | – | – | – | – | – | – | – | inhibition at 0.01 µM [1]: 13%; inhibition at 0.1 µM [1]: 88%; inhibition at 0.01 µM [2]: 46%; inhibition at 0.1 µM [2]: 84%; inhibition at 0.01 µM [3]: 42%; inhibition at 0.1 µM [3]: 63%; inhibition at 0.1 µM (read-out: Inhibitory rate after 3rd washing): 55%; Inhibitory rate after 6th washing (antagonist 10^-7 M): 33%
Cn1c(=O)c2c(ncn2CCCN2CCCN(Cc3ccc(Cl)cc3Cl)CC2)n(C)c1=O [(7)] | – | – | 96 | 78 | 6 | 100 | 100 | 100 | 59 | 52 | 30 | 42 | 46 | 46 | Inhibitory rate after 4th washing (antagonist 10^-6 M): 83%; Inhibitory rate after 5th washing (antagonist 10^-6 M): 87%; Inhibitory rate after 6th washing (antagonist 10^-6 M): 85%; Inhibitory rate after 5th washing (antagonist 10^-8 M): 32%; Inhibitory rate after 6th washing (antagonist 10^-8 M): 18%; Inhibitory rate after 7th washing (antagonist 10^-8 M): 14%
Cn1c(=O)c2c(ncn2CCCN2CCCN(Cc3ccc([N+](=O)[O-])cc3)CC2)n(C)c1=O [(10)] | – | – | 100 | 65 | 21 | 46 | 19 | – | 16 | – | – | 12 | 0 | – | –
Cn1c(=O)c2c(ncn2CCCN2CCCN(Cc3ccccc3)CC2)n(C)c1=O [(11)] | – | – | – | 78 | 0 | – | – | – | 10 | 4 | 0 | 0 | – | – | –
Cn1c(=O)c2c(ncn2CCCN2CCCN(Cc3ccc(Cl)c(Cl)c3)CC2)n(C)c1=O [(8)] | 20 | – | – | 65 | 11 | – | – | – | 55 | 28 | 28 | 29 | 19 | – | –
Cn1c(=O)c2c(ncn2CCCN2CCCN(Cc3ccccc3Cl)CC2)n(C)c1=O [(6)] | 38 | 29 | 100 | 80 | 14 | 100 | – | – | 73 | 58 | 47 | 14 | 14 | 6 | Inhibitory rate after 6th washing (antagonist 10^-7 M): 29%; Inhibitory rate after 7th washing (antagonist 10^-7 M): 20%
Cn1c(=O)c2c(ncn2CCCN2CCCN(Cc3ccc(F)cc3)CC2)n(C)c1=O [(9)] | – | – | 100 | 77 | 10 | 27 | 5 | 0 | 20 | 13 | 5 | 7 | 7 | 1 | –
Cn1c(=O)c2c(ncn2CCCN2CCCN(c3ccccc3)CC2)n(C)c1=O [(4)] | – | – | 100 | 64 | 12 | 10 | 0 | – | 4 | 0 | – | 0 | – | – | –
Cn1c(=O)c2c(ncn2CCCN2CCCN(Cc3ccc(Cl)cc3)CC2)n(C)c1=O [(5)] | – | 0 | 100 | 100 | 2 | 84 | 65 | 58 | 64 | 31 | 20 | 7 | 4 | – | –
CC(CN1c2ccccc2Sc2ccccc21)N(C)C (stereo not drawn) [(1), Promethazine, reference compound] | – | – | – | 87 | 37 | – | – | – | 77 | 56 | 37 | 44 | – | – | –
